Experimental data published in patent US11352339B2 (MISSION THERAPEUTICS LIMITED, priority 2016, dated 2022).

The compounds below were run against USP30 (Homo sapiens (Human), UniProt Q70CQ3) (assay: USP30 Biochemical IC50 Assay). Conditions: fluorescence polarisation, TAMRA labelled peptide linked to ubiquitin; 30 min pre-incubation, read after 2 h; read-out: IC50 range.
Experimental: Reactions were performed in duplicate in black 384 well plates (small volume, Greiner 784076) in a final reaction volume of 21 μl. Either 1 μl of 50% DMSO or diluted compound was added to the plate. […] Enzyme and compound were incubated for 30 min at room temp. Reactions were initiated by the addition of 50 nM of TAMRA labelled peptide linked to ubiquitin via an iso-peptide bond as fluorescence polarisation substrate. Reactions were read immediately after addition of substrate and following a 2 h incubation at room temperature. Readings were performed on a Pherastar Plus (BMG Labtech). λ Excitation 540 nm; λ Emission 590 nm.

USP30, sequence (Q70CQ3 57-517): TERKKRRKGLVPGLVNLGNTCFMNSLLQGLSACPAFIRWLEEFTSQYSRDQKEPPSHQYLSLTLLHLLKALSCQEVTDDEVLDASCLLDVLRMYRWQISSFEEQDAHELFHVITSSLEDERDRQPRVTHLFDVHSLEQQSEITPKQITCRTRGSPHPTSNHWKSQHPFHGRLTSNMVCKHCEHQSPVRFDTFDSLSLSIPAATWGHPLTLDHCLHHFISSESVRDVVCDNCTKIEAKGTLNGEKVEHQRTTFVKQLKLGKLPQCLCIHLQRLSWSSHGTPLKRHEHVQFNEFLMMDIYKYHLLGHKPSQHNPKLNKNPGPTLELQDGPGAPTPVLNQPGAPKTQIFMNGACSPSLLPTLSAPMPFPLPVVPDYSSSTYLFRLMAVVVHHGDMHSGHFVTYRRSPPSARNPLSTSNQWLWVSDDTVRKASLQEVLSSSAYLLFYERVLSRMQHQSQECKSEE

Compared with `N#CN1CCC[C@H]1c1nc2ccc(-c3ccccc3)cc2[nH]1` [Example 94, (S)-2-(6-Phenyl-1H-benzo[d]imidazol-2-yl)pyrrolidine-1-carbonitrile], `N#CN1CCC(c2nc3cc(-c4ccccc4)ccc3[nH]2)C1` (stereo not shown) [Example 95, 3-(5-Phenyl-1H-benzo[d]imidazol-2-yl)pyrrolidine-1-carbonitrile] is lower in IC50: 1000 to 10000 nM for the first, 100 to 1000 nM for the second.

`N#CN1CCC(c2cc(-c3cccc(N4CCCCC4)c3)n[nH]2)C1` (stereo not shown) [Example 12, 3-(3-(3-(Piperidin-1-yl)phenyl)-1H-pyrazol-5-yl)pyrrolidine-1-carbonitrile] and `N#CN1CCC(c2cc(-c3cccc(-c4ccccc4)c3)n[nH]2)C1` (stereo not shown) [Example 14, 3-(3-([1,1′-Biphenyl]-3-yl)-1H-pyrazol-5-yl)pyrrolidine-1-carbonitrile] fall in the same range of IC50: 100 to 1000 nM for the first, 100 to 1000 nM for the second.

`N#CN1CCCC1c1noc(-c2cccc(-c3ccccc3)n2)n1` (stereo not shown) [Example 142, 2-(5-(6-Phenylpyridin-2-yl)-1,2,4-oxadiazol-3-yl)pyrrolidine-1-carbonitrile] and `N#CN1CCCC1c1noc(-c2ccc(-c3ccccc3)cc2)n1` (stereo not shown) [Example 67, 2-(5-([1,1′-Biphenyl]-4-yl)-1,2,4-oxadiazol-3-yl)pyrrolidine-1-carbonitrile] fall in the same range of IC50: 1000 to 10000 nM for the first, 1000 to 10000 nM for the second.

Compared with `N#CN1CC[C@@H](c2noc(-c3ccnc(N4CCc5ccccc5C4)c3)n2)C1` [Example 65, (R)-3-(5-(2-(3,4-Dihydroisoquinolin-2(1H)-yl)pyridin-4-yl)-1,2,4-oxadiazol-3-yl)pyrrolidine-1-carbonitrile], `Cn1cc(-c2cc(-c3nc([C@@H]4CCN(C#N)C4)no3)ccc2F)cn1` [Example 70, (R)-3-(5-(4-Fluoro-3-(1-methyl-1H-pyrazol-4-yl)phenyl)-1,2,4-oxadiazol-3-yl)pyrrolidine-1-carbonitrile] is lower in IC50: 1000 to 10000 nM for the first, 100 to 1000 nM for the second. The second is the more potent here.

`N#CN1CCCC1c1noc(-c2ccnc(-c3cccc(OC(F)(F)F)c3)c2)n1` (stereo not shown) [Example 168, 2-(5-(2-(3-(Trifluoromethoxy)phenyl)-pyridin-4-yl)-1,2,4-oxadiazol-3-yl)pyrrolidine-1-carbonitrile] and `N#CN1CCCC1c1noc(-c2cccc(-c3cccnc3)c2)n1` (stereo not shown) [Example 152, 2-(5-(3-(Pyridin-3-yl)phenyl)-1,2,4-oxadiazol-3-yl)pyrrolidine-1-carbonitrile] fall in the same range of IC50: 100 to 1000 nM for the first, 100 to 1000 nM for the second.

Compared with `N#CN1CCCC1c1noc(-c2cccc(-c3cncnc3)c2)n1` (stereo not shown) [Example 159, 2-(5-(3-(Pyrimidin-5-yl)phenyl)-1,2,4-oxadiazol-3-yl)pyrrolidine-1-carbonitrile], `N#Cc1ccc(-c2cccc(-c3nc([C@@H]4CCCN4C#N)no3)c2)cc1` [Example 174, (S)-2-(5-(4′-Cyano-[1,1′-biphenyl]-3-yl)-1,2,4-oxadiazol-3-yl)pyrrolidine-1-carbonitrile] is lower in IC50: 1000 to 10000 nM for the first, < 100 nM for the second. The second is the more potent here.

`N#CN1CCC(c2nc3ccc(-c4ccc(C(=O)NCc5ccccc5)cc4)cc3[nH]2)C1` (stereo not shown) [Example 79, N-Benzyl-4-(2-(1-cyanopyrrolidin-3-yl)-1H-benzo[d]imidazol-6-yl)benzamide] and `N#CN1CCC(c2cc(-c3ccc(-c4ccccc4)cc3)[nH]n2)C1` (stereo not shown) [Example 35, 3-(5-([1,1′-Biphenyl]-4-yl)-1H-pyrazol-3-yl)pyrrolidine-1-carbonitrile] fall in the same range of IC50: 100 to 1000 nM for the first, 100 to 1000 nM for the second.

`Cc1c(-c2ccccc2)cnc2nc(C3CCN(C#N)C3)[nH]c12` (stereo not shown) [Example 100, 3-(7-Methyl-6-phenyl-3H-imidazo[4,5-b]pyridin-2-yl)pyrrolidine-1-carbonitrile] and `N#CN1CCC(c2cccc(-c3ccccc3)c2N)C1` (stereo not shown) [Example 123, 3-(2-Amino-[1,1′-biphenyl]-3-yl)pyrrolidine-1-carbonitrile] fall in the same range of IC50: 100 to 1000 nM for the first, 100 to 1000 nM for the second.

First: N#Cc1cc(-c2nccc(-c3nc([C@@H]4CCCN4C#N)no3)n2)ccn1 [Example 188, (S)-4-(4-(3-(1-Cyanopyrrolidin-2-yl)-1,2,4-oxadiazol-5-yl)pyrimidin-2-yl)picolinonitrile]
Second: N#Cc1cc(F)cc(-c2ccc3oc([C@@H]4CCCN4C#N)nc3c2)c1 [Example 138, (S)-2-(5-(3-Cyano-5-fluorophenyl)-benzo[d]oxazol-2-yl)pyrrolidine-1-carbonitrile]
The IC50 of the first is lower: < 100 nM for the first, 100 to 1000 nM for the second.

`N#CN1CCC(c2n[nH]c(-c3ccnc(-c4ccccc4)c3)n2)C1` (stereo not shown) [Example 199, 3-(3-(2-Phenylpyridin-4-yl)-1H-1,2,4-triazol-5-yl)pyrrolidine-1-carbonitrile] and `N#CN1CCC(c2cc(-c3cccc(-c4ccccc4)n3)[nH]n2)C1` (single isomer, unassigned) [Example 41, 3-(5-(6-Phenylpyridin-2-yl)-1H-pyrazol-3-yl)pyrrolidine-1-carbonitrile] fall in the same range of IC50: 100 to 1000 nM for the first, 100 to 1000 nM for the second.

First: N#CN1CCC(c2[nH]nc(-c3cccc(-c4ccccc4)c3)c2F)C1 (stereo not shown) [Example 15, 3-(3-([1,1′-Biphenyl]-3-yl)-4-fluoro-1H-pyrazol-5-yl)pyrrolidine-1-carbonitrile]
Second: N#CN1CCC(c2cc(-c3cccc(-c4cccnc4)c3)n[nH]2)C1 (stereo not shown) [Example 26, 3-(3-(3-(Pyridin-3-yl)phenyl)-1H-pyrazol-5-yl)pyrrolidine-1-carbonitrile]
The IC50 of the first is lower: < 100 nM for the first, 100 to 1000 nM for the second. The first is the more potent here.

`N#CN1CCC(c2[nH]nc(-c3cccc(-c4ccccc4)c3)c2F)C1` (single isomer, unassigned) [Example 16, 3-(3-([1,1′-Biphenyl]-3-yl)-4-fluoro-1H-pyrazol-5-yl)pyrrolidine-1-carbonitrile] and `C[C@@H]1CN(C#N)C[C@H]1c1n[nH]c(-c2cccc(-c3ccccc3)c2)n1` (single isomer, unassigned) [Example 116, Trans-3-(3-([1,1′-biphenyl]-3-yl)-1H-1,2,4-triazol-5-yl)-4-methylpyrrolidine-1-carbonitrile] fall in the same range of IC50: 100 to 1000 nM for the first, 100 to 1000 nM for the second.

First: N#CN1CCC(c2noc(-c3ccc(N4CCOCC4)cc3)n2)C1 (stereo not shown) [Example 61, 3-(5-(4-Morpholinophenyl)-1,2,4-oxadiazol-3-yl)pyrrolidine-1-carbonitrile]
Second: COc1cc(-c2nc([C@@H]3CCN(C#N)C3)no2)ccc1-c1cnn(C)c1 [Example 71, (R)-3-(5-(3-Methoxy-4-(1-methyl-1H-pyrazol-4-yl)phenyl)-1,2,4-oxadiazol-3-yl)pyrrolidine-1-carbonitrile]
The IC50 of the first is higher: 1000 to 10000 nM for the first, 100 to 1000 nM for the second. The second is the more potent here.

First: N#CN1CC[C@@H](c2cc(-c3cccc(-c4cnoc4)c3)[nH]n2)C1 [Example 32, 3-(5-(3-(Isoxazol-4-yl)phenyl)-1H-pyrazol-3-yl)pyrrolidine-1-carbonitrile]
Second: N#CN1CCC(c2[nH]nc(-c3cccc(-c4ccccc4)c3)c2F)C1 (single isomer, unassigned) [Example 17, 3-(3-([1,1′-Biphenyl]-3-yl)-4-fluoro-1H-pyrazol-5-yl)pyrrolidine-1-carbonitrile]
The IC50 of the first is higher: 1000 to 10000 nM for the first, < 100 nM for the second. The second is the more potent here.

Compared with `COc1ccc(-c2cnc3[nH]c(C4CCN(C#N)C4)nc3c2)cn1` (stereo not shown) [Example 86, 3-(6-(6-Methoxypyridin-3-yl)-3H-imidazo[4,5-b]pyridin-2-yl)pyrrolidine-1-carbonitrile], `CNC(=O)c1cccc(-c2cnc3[nH]c(C4CCN(C#N)C4)nc3c2)c1` (stereo not shown) [Example 89, 3-(2-(1-Cyanopyrrolidin-3-yl)-3H-imidazo[4,5-b]pyridin-6-yl)-N-methylbenzamide] is higher in IC50: 100 to 1000 nM for the first, 1000 to 10000 nM for the second.

For `N#CN1CCC(c2noc(-c3ccccc3OCc3ccccc3)n2)C1` (stereo not shown) [Example 59, 3-(5-(2-(Benzyloxy)phenyl)-1,2,4-oxadiazol-3-yl)pyrrolidine-1-carbonitrile], the IC50 was 1000 to 10000 nM.
